Laboratory results as given in the NIST ThermoML archive (doi:10.1016/j.jct.2010.07.016).

What was measured:
[1] = xn = mol fraction of the nth substance listed; conditions: 308.15 K, 101 kPa, Liquid; for excess molar volume: Direct dilatometry; for speed of sound: Linear variable-path acoustic interferometer
[2] = excess molar enthalpy (molar enthalpy of mixing); xn = mol fraction of the nth substance listed; conditions: 308.15 K, 101 kPa, Liquid, Drop calorimeter

C1CCOCC1 [tetrahydropyran] + Cc1ccc(C)cc1
Conditions	excess molar enthalpy [kJ/mol]	excess molar volume [m3/mol]	speed of sound [m/s]
[1], x1 = 0.0639	–	-2.2e-08	–
[1], x1 = 0.0784	–	–	1271
[1], x1 = 0.1503	–	-4.3e-08	–
[1], x1 = 0.1521	–	–	1267
[1], x1 = 0.2123	–	–	1263
[1], x1 = 0.2321	–	-5.5e-08	–
[1], x1 = 0.2835	–	-5.9e-08	–
[1], x1 = 0.2876	–	–	1258
[1], x1 = 0.3331	–	-6.1e-08	–
[1], x1 = 0.3342	–	–	1255
[1], x1 = 0.3832	–	-6.1e-08	–
[1], x1 = 0.4091	–	–	1251
[1], x1 = 0.4421	–	-6e-08	–
[1], x1 = 0.4953	–	–	1247
[1], x1 = 0.5127	–	-5.7e-08	–
[1], x1 = 0.5186	–	–	1245
[1], x1 = 0.5515	–	-5.4e-08	–
[1], x1 = 0.5684	–	–	1243
[1], x1 = 0.6027	–	-4.9e-08	–
[1], x1 = 0.6175	–	–	1241
[1], x1 = 0.6529	–	-4.4e-08	–
[1], x1 = 0.7077	–	–	1237
[1], x1 = 0.7211	–	-3.6e-08	–
[1], x1 = 0.7905	–	-2.7e-08	–
[1], x1 = 0.7909	–	–	1233
[1], x1 = 0.8666	–	–	1230
[1], x1 = 0.8673	–	-1.7e-08	–
[1], x1 = 0.9354	–	–	1227
[2], x1 = 0.0804	-0.0286	–	–
[2], x1 = 0.1402	-0.0533	–	–
[2], x1 = 0.2416	-0.0944	–	–
[2], x1 = 0.3002	-0.115	–	–
[2], x1 = 0.3842	-0.136	–	–
[2], x1 = 0.4706	-0.146	–	–
[2], x1 = 0.5776	-0.14	–	–
[2], x1 = 0.6454	-0.126	–	–
[2], x1 = 0.6914	-0.113	–	–
[2], x1 = 0.7432	-0.0955	–	–
[2], x1 = 0.7919	-0.0767	–	–
[2], x1 = 0.8476	-0.054	–	–
[2], x1 = 0.9021	-0.0322	–	–
[2], x1 = 0.9415	-0.0177	–	–

C1CCOCC1 [tetrahydropyran] + Cc1ccccc1
Conditions	excess molar enthalpy [kJ/mol]	excess molar volume [m3/mol]	speed of sound [m/s]
[1], x1 = 0.0554	–	-3.1e-08	–
[1], x1 = 0.0673	–	-3.7e-08	–
[1], x1 = 0.085	–	-4.6e-08	–
[1], x1 = 0.0925	–	–	1259
[1], x1 = 0.1343	–	–	1258
[1], x1 = 0.1534	–	-7.9e-08	–
[1], x1 = 0.1789	–	–	1257
[1], x1 = 0.1861	–	-9.2e-08	–
[1], x1 = 0.2311	–	-1.1e-07	–
[1], x1 = 0.2587	–	–	1256
[1], x1 = 0.2942	–	-1.29e-07	–
[1], x1 = 0.3742	–	–	1254
[1], x1 = 0.4109	–	-1.53e-07	–
[1], x1 = 0.4263	–	–	1253
[1], x1 = 0.4815	–	–	1251
[1], x1 = 0.5187	–	–	1250
[1], x1 = 0.5273	–	-1.59e-07	–
[1], x1 = 0.5795	–	–	1248
[1], x1 = 0.6433	–	-1.46e-07	–
[1], x1 = 0.6765	–	–	1243
[1], x1 = 0.7122	–	–	1242
[1], x1 = 0.7215	–	-1.27e-07	–
[1], x1 = 0.7646	–	–	1239
[1], x1 = 0.8202	–	-9.3e-08	–
[1], x1 = 0.8487	–	–	1234
[1], x1 = 0.9252	–	–	1229
[1], x1 = 0.9297	–	-4e-08	–
[1], x1 = 0.9735	–	-1.6e-08	–
[2], x1 = 0.0445	-0.0285	–	–
[2], x1 = 0.0662	-0.0427	–	–
[2], x1 = 0.0837	-0.0541	–	–
[2], x1 = 0.1138	-0.0737	–	–
[2], x1 = 0.2154	-0.135	–	–
[2], x1 = 0.2806	-0.169	–	–
[2], x1 = 0.3031	-0.179	–	–
[2], x1 = 0.397	-0.21	–	–
[2], x1 = 0.5319	-0.223	–	–
[2], x1 = 0.6305	-0.206	–	–
[2], x1 = 0.7413	-0.163	–	–
[2], x1 = 0.8325	-0.112	–	–
[2], x1 = 0.9352	-0.0445	–	–
[2], x1 = 0.9727	-0.0187	–	–

C1CCOCC1 [tetrahydropyran] + c1ccccc1
Conditions	excess molar enthalpy [kJ/mol]	excess molar volume [m3/mol]	speed of sound [m/s]
[1], x1 = 0.0555	–	–	1256
[1], x1 = 0.0684	–	-4.9e-08	–
[1], x1 = 0.1029	–	-6.9e-08	–
[1], x1 = 0.1165	–	–	1253
[1], x1 = 0.1472	–	–	1251
[1], x1 = 0.1673	–	-1.01e-07	–
[1], x1 = 0.1835	–	-1.08e-07	–
[1], x1 = 0.2223	–	–	1248
[1], x1 = 0.243	–	-1.29e-07	–
[1], x1 = 0.2728	–	–	1246
[1], x1 = 0.3143	–	-1.45e-07	–
[1], x1 = 0.3751	–	–	1241
[1], x1 = 0.4085	–	-1.56e-07	–
[1], x1 = 0.4395	–	–	1239
[1], x1 = 0.4821	–	–	1237
[1], x1 = 0.5291	–	-1.52e-07	–
[1], x1 = 0.5313	–	–	1238
[1], x1 = 0.599	–	-1.42e-07	–
[1], x1 = 0.6223	–	–	1233
[1], x1 = 0.6543	–	-1.3e-07	–
[1], x1 = 0.681	–	–	1231
[1], x1 = 0.7321	–	–	1230
[1], x1 = 0.7452	–	-1.05e-07	–
[1], x1 = 0.7823	–	-9.3e-08	–
[1], x1 = 0.8253	–	–	1228
[1], x1 = 0.8754	–	-5.7e-08	–
[1], x1 = 0.9123	–	–	1226
[1], x1 = 0.9539	–	-2.3e-08	–
[2], x1 = 0.0484	-0.0326	–	–
[2], x1 = 0.0757	-0.0516	–	–
[2], x1 = 0.0978	-0.0671	–	–
[2], x1 = 0.1432	-0.0985	–	–
[2], x1 = 0.2425	-0.161	–	–
[2], x1 = 0.311	-0.195	–	–
[2], x1 = 0.385	-0.222	–	–
[2], x1 = 0.4982	-0.236	–	–
[2], x1 = 0.6013	-0.222	–	–
[2], x1 = 0.6875	-0.191	–	–
[2], x1 = 0.7073	-0.182	–	–
[2], x1 = 0.7832	-0.14	–	–
[2], x1 = 0.8501	-0.0974	–	–
[2], x1 = 0.923	-0.0488	–	–
